Test results taken from patent US20130005696A1, “BUFADIENOLIDE DERIVATIVES, PREPARING PROCESS THEREOF, COMPOSITION COMPRISING THE SAME AND THE USE THEREOF” (priority 2011, published 2013).

Tests used:
[1] = tested on: human-derived lung cancer H460 xenograft; assay: Therapeutic effect against H460 xenograft in nude mice; assay type: in vivo, Balb/c nude mice; details: QOD × 21 d
Protocol: (§1) This experiment is to investigate the in vivo inhibitory effect of II1E-01.HCl on growth of human-derived hepatic carcinoma HepG2 cell, human-derived breast carcinoma MDA-MB-231 cell, human-derived lung carcinoma H460 cell, human-derived colon carcinoma HCT-116 cell, human-derived […] MV-4-11 cell xenografts in nude mice.
(§2) Formulation of solvent control (5% anhydrous ethanol & 5% aqueous glucose solution): 2.5 mL anhydrous ethanol was added into a 50 mL tube, followed by addition of 47.5 mL 5% glucose solution for injection followed by shaking, and stored at room temperature before use.
(§3) Formulation of the preparations of the compounds to be tested: formulations with concentrations of 0.4 mg/mL and 0.6 mg/mL were prepared respectively. An appropriate amount of II1E-01.HCl was weighted and put into a 50 mL tube, followed by addition of corresponding volume of solvent to get the desired concentration and mixed using a vortex mixer. After the solid was dissolved completely, the solution was subpackaged into 4 mL vials and stored at refrigerated condition (2-8° C.) until use.
(§4) Experimental animals: Balb/c nude mice (male, six weeks old).
NCI-H460 xenograft model was established by tumor implantation. 19 days after the implantation, the tumor size reached about 210 mm^3. The mice bearing the tumor were grouped by randomized block method according to the tumor size into 3 groups, which contain 10 mice in each group and include the group of solvent control, and groups of middle (4 mg/kg) and high (6 mg/kg) dosages of the testing compound II1E-01.HCl. In the solvent control group, 5% glucose solution was administered intravenously at tail once every other day (QOD). The testing compound was administered intravenously at tail once every other day (QOD). The animals were given the drugs for three weeks, during which the growth of tumor and the body weight of the mice were observed.
After continuously administering for 21 days (the 40th day after the implantation), the tumor weight and inhibition rate were calculated, and results are listed in Table 7.

[2] = tested on: human hepatic carcinoma HepG2 xenograft; assay: Therapeutic effect against HepG2 xenograft in nude mice; assay type: in vivo, Balb/c nude mice; details: QOD × 14 d
Protocol: as §1, §2, §3, §4
HepG2 cells were in vitro cultured to be proliferated. The cells in the log phase of growth were collected and resuspended in DMEM serum-free medium, and then implanted subcutaneously into the axilla of the right forelimb of nude mice. After 11 days, the tumor size reached about 250 mm^3. The mice bearing the tumor were grouped according to the tumor size into 6 groups, including the group of solvent control, groups of positive controls (Rapamycin 10 mg/kg and Vinorelbine 8 mg/kg), and groups of low (2 mg/kg), middle (4 mg/kg) and high (6 mg/kg) dosages of the testing compound II1E-01.HCl. Each group was administered intravenously at tail. In the solvent control group, the solvent control solution was administered intravenously once every other day (QOD). In the low, middle and high dosage groups of II1E-01.HCl, II1E-01.HCl was administered intravenously once every other day (QOD). In the positive control groups, Rapamycin 10 mg/kg and Vinorelbine 8 mg/kg were administered once a week (QW). The animals were given the drugs for two weeks. In the two week time period, the growth of tumor and the body weight of the mice were observed.
Two weeks after administering (the 25th day after the implantation), the tumor weight and inhibition rate were calculated, and results are listed in Table 5.

[3] = tested on: HeLa human cervical carcinoma cell line; assay: In vitro antitumor activity assay (SRB), HeLa; assay type: cell-based; details: read-out: IC50, inhibitory activity on cell proliferation of HeLa cell line
How it was run: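 Log-phase cells attached 24 h, then exposed in triplicate to compounds at 10 μM–0.1 nM in saline for 72 h at 37 °C in RPMI-1640. TCA-fixed, SRB-stained, A515 read; percent inhibition versus saline control, IC50 fitted.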

[4] = tested on: LoVo human colon carcinoma cell line; assay: In vitro antitumor activity assay (SRB), LoVo; assay type: cell-based; details: Table 2, read-out: IC50, inhibition of cell proliferation, LoVo
Text: HeLa human cervical carcinoma cell line, A-549 human non-small cell lung carcinoma cell line, NCI-H2228 human lung carcinoma cell line, NCI-H460 human lung carcinoma cell line, MDA-MB-231 human breast carcinoma cell line, MCF-7 human breast carcinoma cell line, Bel-7402 human hepatic carcinoma cell line, Hep3B human hepatic carcinoma cell line, QGY-7703 human hepatic carcinoma cell line, MV-4-11 human leukemic cell line, DAUDI human leukemic cell line, Jurkat human leukemic cell line, A498 renal carcinoma cell line, LoVo human colon carcinoma cell line, HCT1116 human colon carcinoma cell line, A431 human skin carcinoma cell line, PANC-1 human pancreatic carcinoma cell line, U87-MG human brain carcinoma cell line, SH-SY5Y human brain carcinoma cell line, RPMI-8226 human bone carcinoma cell line, HT1080 human fibrosarcoma cell line, PC-3 human prostatic carcinoma cell line, AGS human gastric adenocarcinoma cell line, and BGC-823 human gastric adenocarcinoma cell line were purchased from the Cell Bank of the Chinese Academy of Sciences.
The positive control is bufalin (formulated according to the common method), its purity is 98% or more by HPLC-UV and its structure is identified by NMR. The compounds to be tested and the positive control were diluted with normal saline with a concentration gradient of 10^−4 M, 10^−5 M, 10^−6 M, 10^−7 M and 10^−8 M.
According to cell growth rate, tumor cells in the log phase of growth were seeded into 96-well culture plates at 100 μL per well, and allowed to attach for 24 hours, followed by addition of a test compound or positive control at 10 μL per well. For each concentration, the test was carried out in triplicate wells. Solvent control wells with addition of normal saline into cell culture and a blank well containing only cell culture medium but without cells for zeroing were also included. The tumor cells were incubated for 72 hours at 37° C. under 5% CO2, and then the culture medium (RPMI-1640) was removed. The cells were fixed with 10% cool TCA by incubating for 1 h at 4° C., washed with distilled water for 5 times, and dried naturally in the air. A solution of SRB (Sigma) (4 mg/mL) in 1% glacial acetic acid was added at 100 μL per well, and the cells were stained for 15 minutes at room temperature, and the supernatant was discarded. The plates were washed for 5 times with 1% acetic acid, and dried in air. Finally, Tris solution was added at 150 μL per well, and the absorbance (A) was measured at a wavelength of 515 nm using a microplate reader. The growth inhibition on tumor cell proliferation was calculated according to the following equation:
Growth Inhibition (%)=[(Absorbance of negative control−Absorbance of blank)−(Absorbance of sample−Absorbance of blank)]/(Absorbance of negative control−Absorbance of blank)×100%
Drug concentration: 10 μM, 1 μM, 0.1 μM, 10 nM, 1 nM, 0.1 nM.
IC50 was fitted by GraphPad Prism 4.

[5] = 4 mg/kg iv, listed as II1E-01.HCl, 4 mg/kg
[6] = 6 mg/kg iv, listed as II1E-01.HCl, 6 mg/kg

SMILES | Tumor Weight(g) Mean ± SE ([1]; 4 mg/kg iv) [g] | Inhibition Rate (%) ([1]; 4 mg/kg iv, 4 mg/kg) | Inhibition Rate (%) [1, 5] [%] | Tumor Weight(g) Mean ± SE ([1]; 6 mg/kg iv) [g] | Inhibition Rate (%) ([1]; 6 mg/kg iv, 6 mg/kg) | Inhibition Rate (%) [1, 6] [%] | Tumor Weight(g) Mean ± SE ([2]; 2 mg/kg iv) [g] | Inhibition Rate (%) ([2]; 2 mg/kg iv, 2 mg/kg) | Inhibition Rate (%) ([2]; 2 mg/kg iv, listed as II1E-01.HCl, 2 mg/kg) | Tumor Weight(g) Mean ± SE ([2]; 4 mg/kg iv) [g] | Inhibition Rate (%) ([2]; 4 mg/kg iv, 4 mg/kg) | Inhibition Rate (%) [2, 5] [%] | Tumor Weight(g) Mean ± SE ([2]; 6 mg/kg iv) [g] | Inhibition Rate (%) ([2]; 6 mg/kg iv, 6 mg/kg) | Inhibition Rate (%) [2, 6] [%] | IC50 [3] [nM] | IC50 [4] [nM]
C[C@]12CC[C@H](OC(=O)NC3CCNCC3)C[C@H]1CC[C@@H]1[C@@H]2CC[C@]2(C)[C@@H](c3ccc(=O)oc3)CC[C@]12O.Cl [II1E-01•HCl] | 0.5125 ± 0.0307 | 61.94 | 61.94 | 0.3246 ± 0.0692 | 75.90 | 75.90 | 0.3177 ± 0.0410 | 58.50 | 58.50 | 0.0938 ± 0.0121 | 87.75 | 87.75 | 0.0262 ± 0.0054 | 96.58 | 96.58 | – | –
C[C@]12CC[C@H](O)C[C@H]1CC[C@@H]1[C@@H]2CC[C@]2(C)[C@@H](c3ccc(=O)oc3)CC[C@]12O [bufalin, reference compound] | – | – | – | – | – | – | – | – | – | – | – | – | – | – | – | 7.27 | 29.5 ± 1
